# Reference: PMC7206119, “RIP1 inhibition blocks inflammatory diseases but not tumor growth or metastases” (Cell Death and Differentiation, 2019)
# Experiments:
# Assay in all cases: biochemical
# Parameters in all cases: DiscoverX kinase panel, active-site competition binding (KINOMEscan type), percent of control at one concentration
# Details in all cases: competition binding, percent of control
# [1] = molecular target: T1, ABL1(E255K)-phosphorylated (Homo sapiens, UniProt P00519, E255K)
# T1 construct: phosphorylated
# [2] = molecular target: T2, ABL1(F317I)-nonphosphorylated (Homo sapiens, UniProt P00519, F317I)
# T2 construct: nonphosphorylated
# ACVR2A = ACVR2A (Homo sapiens, UniProt P27037)
# ASK1 = molecular target: T3, ASK1 (Homo sapiens, UniProt Q99683)
# T3 construct: gene MAP3K5
# CSNK1D = CSNK1D (Homo sapiens, UniProt P48730)
# ERBB2 = ERBB2 (Homo sapiens, UniProt P04626)
# ERK1 = molecular target: T4, ERK1 (Homo sapiens, UniProt P27361)
# T4 construct: gene MAPK3
# ICK = molecular target: T5, ICK (Homo sapiens, UniProt Q9UPZ9)
# T5 construct: gene CILK1
# T5 sequence (Q9UPZ9 whole entry): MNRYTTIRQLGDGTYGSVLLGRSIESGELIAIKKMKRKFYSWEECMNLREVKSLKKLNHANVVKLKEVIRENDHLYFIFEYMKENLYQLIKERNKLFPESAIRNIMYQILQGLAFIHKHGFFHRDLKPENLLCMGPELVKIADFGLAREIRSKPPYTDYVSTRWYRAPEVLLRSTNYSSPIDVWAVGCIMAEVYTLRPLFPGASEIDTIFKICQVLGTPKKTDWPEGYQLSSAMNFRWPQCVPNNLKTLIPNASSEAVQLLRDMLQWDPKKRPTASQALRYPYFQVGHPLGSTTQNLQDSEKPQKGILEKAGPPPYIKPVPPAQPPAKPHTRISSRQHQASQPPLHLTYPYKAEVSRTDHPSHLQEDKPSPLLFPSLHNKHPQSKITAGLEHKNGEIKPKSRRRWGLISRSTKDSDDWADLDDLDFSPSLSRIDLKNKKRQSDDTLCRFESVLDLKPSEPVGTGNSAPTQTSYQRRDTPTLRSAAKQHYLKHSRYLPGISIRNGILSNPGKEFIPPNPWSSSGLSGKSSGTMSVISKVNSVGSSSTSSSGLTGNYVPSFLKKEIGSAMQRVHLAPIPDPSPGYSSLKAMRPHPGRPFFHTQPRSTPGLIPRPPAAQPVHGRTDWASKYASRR
# INSR = INSR (Homo sapiens, UniProt P06213)
# INSR, sequence (P06213 whole entry): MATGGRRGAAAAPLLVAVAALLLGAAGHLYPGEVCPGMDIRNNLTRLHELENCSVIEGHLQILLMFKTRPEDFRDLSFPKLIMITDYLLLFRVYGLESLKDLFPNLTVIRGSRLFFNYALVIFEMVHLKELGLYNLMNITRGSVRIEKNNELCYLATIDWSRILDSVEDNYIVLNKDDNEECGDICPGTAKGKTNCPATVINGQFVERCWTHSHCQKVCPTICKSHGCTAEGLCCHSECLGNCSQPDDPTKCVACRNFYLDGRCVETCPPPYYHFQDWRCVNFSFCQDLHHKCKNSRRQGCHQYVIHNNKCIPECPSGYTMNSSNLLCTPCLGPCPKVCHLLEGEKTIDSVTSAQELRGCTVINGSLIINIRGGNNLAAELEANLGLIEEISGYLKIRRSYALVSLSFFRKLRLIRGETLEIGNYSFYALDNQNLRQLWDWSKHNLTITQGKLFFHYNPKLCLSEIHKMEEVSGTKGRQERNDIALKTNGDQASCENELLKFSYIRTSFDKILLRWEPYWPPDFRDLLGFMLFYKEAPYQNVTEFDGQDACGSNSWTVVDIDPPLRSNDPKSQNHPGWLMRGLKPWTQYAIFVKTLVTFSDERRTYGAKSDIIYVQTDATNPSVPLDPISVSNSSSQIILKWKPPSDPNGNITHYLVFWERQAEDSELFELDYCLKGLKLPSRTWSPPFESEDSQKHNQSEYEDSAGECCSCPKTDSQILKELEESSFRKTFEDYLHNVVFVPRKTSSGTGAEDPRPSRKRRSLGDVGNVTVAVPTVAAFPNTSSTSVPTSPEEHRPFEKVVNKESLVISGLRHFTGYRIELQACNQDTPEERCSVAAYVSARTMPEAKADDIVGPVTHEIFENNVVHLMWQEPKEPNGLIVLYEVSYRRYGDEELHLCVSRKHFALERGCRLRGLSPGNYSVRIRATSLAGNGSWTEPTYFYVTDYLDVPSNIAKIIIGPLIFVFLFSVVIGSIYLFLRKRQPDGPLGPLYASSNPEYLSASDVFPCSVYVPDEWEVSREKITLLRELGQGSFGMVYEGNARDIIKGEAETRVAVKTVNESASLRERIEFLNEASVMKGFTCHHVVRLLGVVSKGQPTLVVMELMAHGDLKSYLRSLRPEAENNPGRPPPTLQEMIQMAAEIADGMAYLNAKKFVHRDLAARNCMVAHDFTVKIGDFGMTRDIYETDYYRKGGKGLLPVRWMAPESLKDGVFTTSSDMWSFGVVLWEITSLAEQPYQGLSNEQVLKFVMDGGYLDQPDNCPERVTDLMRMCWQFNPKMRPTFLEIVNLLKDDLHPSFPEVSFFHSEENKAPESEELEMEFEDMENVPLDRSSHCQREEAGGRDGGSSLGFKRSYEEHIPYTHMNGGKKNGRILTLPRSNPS
# KIT-autoinhibited = KIT-autoinhibited (Homo sapiens, UniProt P10721)
# MAP3K1 = MAP3K1 (Homo sapiens, UniProt Q13233)
# MAP3K1, sequence (Q13233 whole entry): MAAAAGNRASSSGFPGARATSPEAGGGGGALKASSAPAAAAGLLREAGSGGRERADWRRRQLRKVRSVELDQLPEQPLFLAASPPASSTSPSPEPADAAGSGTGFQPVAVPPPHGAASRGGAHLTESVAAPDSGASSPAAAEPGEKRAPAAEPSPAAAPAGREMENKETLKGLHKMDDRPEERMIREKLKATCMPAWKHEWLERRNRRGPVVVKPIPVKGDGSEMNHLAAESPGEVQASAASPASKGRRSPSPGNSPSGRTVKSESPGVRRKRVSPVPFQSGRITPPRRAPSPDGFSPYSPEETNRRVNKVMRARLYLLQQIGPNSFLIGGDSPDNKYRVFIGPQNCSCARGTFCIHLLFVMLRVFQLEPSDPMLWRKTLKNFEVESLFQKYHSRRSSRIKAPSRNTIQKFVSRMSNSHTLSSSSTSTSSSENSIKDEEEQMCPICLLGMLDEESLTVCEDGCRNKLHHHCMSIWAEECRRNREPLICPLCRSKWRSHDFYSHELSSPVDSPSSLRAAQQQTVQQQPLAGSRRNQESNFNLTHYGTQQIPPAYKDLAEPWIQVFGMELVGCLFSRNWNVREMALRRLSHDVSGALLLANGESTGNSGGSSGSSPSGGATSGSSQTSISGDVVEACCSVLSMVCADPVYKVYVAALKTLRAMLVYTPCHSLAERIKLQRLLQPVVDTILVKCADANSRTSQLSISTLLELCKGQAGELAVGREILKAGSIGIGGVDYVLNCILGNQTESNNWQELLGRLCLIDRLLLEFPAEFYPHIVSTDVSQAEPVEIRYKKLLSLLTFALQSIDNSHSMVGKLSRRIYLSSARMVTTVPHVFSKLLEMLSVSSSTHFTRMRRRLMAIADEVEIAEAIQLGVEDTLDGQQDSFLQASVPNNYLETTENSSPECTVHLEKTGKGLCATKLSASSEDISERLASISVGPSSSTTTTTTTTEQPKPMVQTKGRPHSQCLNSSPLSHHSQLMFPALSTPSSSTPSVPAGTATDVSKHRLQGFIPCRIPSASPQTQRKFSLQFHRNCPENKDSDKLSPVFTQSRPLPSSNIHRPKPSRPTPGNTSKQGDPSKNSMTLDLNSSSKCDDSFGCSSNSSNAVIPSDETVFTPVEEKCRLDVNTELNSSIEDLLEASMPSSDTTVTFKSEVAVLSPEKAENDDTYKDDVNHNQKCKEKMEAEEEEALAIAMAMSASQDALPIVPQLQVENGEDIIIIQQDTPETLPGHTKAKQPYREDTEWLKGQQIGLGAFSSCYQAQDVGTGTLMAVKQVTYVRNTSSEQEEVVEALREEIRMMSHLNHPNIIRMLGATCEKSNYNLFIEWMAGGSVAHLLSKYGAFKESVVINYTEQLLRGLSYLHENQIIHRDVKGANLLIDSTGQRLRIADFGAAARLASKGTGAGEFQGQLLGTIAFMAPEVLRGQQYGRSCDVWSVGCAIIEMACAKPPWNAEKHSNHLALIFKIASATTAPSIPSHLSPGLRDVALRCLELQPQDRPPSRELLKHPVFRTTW
# MAST1 = MAST1 (Homo sapiens, UniProt Q9Y2H9)
# MET(M1250T) = MET(M1250T) (Homo sapiens, UniProt P08581, M1250T)
# MET(M1250T), sequence (P08581 whole entry M1250T): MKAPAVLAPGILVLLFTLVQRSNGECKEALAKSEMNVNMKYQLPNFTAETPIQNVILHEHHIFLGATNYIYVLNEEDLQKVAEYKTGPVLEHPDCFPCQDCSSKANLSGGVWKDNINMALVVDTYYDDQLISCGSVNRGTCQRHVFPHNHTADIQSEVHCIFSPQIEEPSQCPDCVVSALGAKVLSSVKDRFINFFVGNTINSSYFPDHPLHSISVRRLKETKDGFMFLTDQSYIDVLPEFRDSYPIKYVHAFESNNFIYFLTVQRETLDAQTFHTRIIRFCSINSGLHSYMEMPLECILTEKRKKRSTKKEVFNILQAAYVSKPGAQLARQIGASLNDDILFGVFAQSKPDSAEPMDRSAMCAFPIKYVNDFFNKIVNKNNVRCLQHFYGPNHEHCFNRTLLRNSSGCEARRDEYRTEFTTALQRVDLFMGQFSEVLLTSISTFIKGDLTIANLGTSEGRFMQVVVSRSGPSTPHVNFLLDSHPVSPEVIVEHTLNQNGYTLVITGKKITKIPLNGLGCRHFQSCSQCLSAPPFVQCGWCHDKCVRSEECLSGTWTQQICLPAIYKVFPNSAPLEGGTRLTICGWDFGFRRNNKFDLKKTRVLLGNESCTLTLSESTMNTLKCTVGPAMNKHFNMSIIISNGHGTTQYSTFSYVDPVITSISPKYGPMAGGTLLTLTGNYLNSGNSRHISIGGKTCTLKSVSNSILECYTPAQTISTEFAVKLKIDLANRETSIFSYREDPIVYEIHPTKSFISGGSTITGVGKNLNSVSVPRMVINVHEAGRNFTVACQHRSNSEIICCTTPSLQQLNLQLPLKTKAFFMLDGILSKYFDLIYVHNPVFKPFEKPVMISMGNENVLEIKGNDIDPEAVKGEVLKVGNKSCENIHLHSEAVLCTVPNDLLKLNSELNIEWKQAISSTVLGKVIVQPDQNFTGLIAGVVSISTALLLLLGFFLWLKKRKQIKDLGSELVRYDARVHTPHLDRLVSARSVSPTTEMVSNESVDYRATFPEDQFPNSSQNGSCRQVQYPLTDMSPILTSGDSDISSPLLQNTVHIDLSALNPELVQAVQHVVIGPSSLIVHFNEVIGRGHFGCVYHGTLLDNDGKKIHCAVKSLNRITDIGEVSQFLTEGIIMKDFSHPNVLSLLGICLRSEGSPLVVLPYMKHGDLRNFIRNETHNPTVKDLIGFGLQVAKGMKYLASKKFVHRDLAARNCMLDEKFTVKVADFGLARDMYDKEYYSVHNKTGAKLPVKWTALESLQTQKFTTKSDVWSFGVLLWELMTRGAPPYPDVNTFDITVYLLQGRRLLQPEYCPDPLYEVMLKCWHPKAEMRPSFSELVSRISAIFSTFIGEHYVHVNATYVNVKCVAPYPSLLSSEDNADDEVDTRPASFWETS
# PAK6 = PAK6 (Homo sapiens, UniProt Q9NQU5)
# PAK7 = molecular target: T6, PAK7 (Homo sapiens, UniProt Q9P286)
# T6 construct: gene PAK5
# SIK2 = SIK2 (Homo sapiens, UniProt Q9H0K1)
# SNRK = SNRK (Homo sapiens, UniProt Q9NRH2)
# TAOK3 = TAOK3 (Homo sapiens, UniProt Q9H2K8)
# TGFBR1 = TGFBR1 (Homo sapiens, UniProt P36897)
# TIE1 = TIE1 (Homo sapiens, UniProt P35590)
# VPS34 = molecular target: T7, VPS34 (Homo sapiens, UniProt Q8NEB9)
# T7 construct: gene PIK3C3
structure (smiles),measurement,setting,value
"COc1cc2c(cn1)N(C)C(=O)[C@@H](NC(=O)c1nc3n(n1)[C@H](c1ccccc1)CC3)CC2 [GNE684, (S)-N-((S)-7-methoxy-1-methyl-2-oxo-2,3,4,5-tetrahydro-1H-pyrido[3,4-b]azepin-3-yl)-5-phenyl-6,7-dihydro-5H-pyrrolo[1,2-b][1,2,4]triazole-2-carboxamide]",remaining binding at 10 µM,[1],91%
same,remaining binding at 10 µM,[2],97%
same,remaining binding at 10 µM,ACVR2A,82%
same,remaining binding at 10 µM,ASK1,97%
same,remaining binding at 10 µM,CSNK1D,100%
same,remaining binding at 10 µM,ERBB2,76%
same,remaining binding at 10 µM,ERK1,96%
same,remaining binding at 10 µM,ICK,93%
same,remaining binding at 10 µM,INSR,90%
same,remaining binding at 10 µM,KIT-autoinhibited,93%
same,remaining binding at 10 µM,MAP3K1,90%
same,remaining binding at 10 µM,MAST1,94%
same,remaining binding at 10 µM,MET(M1250T),100%
same,remaining binding at 10 µM,PAK6,100%
same,remaining binding at 10 µM,PAK7,90%
same,remaining binding at 10 µM,SIK2,98%
same,remaining binding at 10 µM,SNRK,93%
same,remaining binding at 10 µM,TAOK3,60%
same,remaining binding at 10 µM,TGFBR1,97%
same,remaining binding at 10 µM,TIE1,88%
same,remaining binding at 10 µM,VPS34,100%
